Where “and” joins values, the source holds several entries; their conditions need not be identical. Equal values may be shown once.

Assay [1] has as its target Phosphatidylinositol 4,5-bisphosphate 3-kinase catalytic subunit alpha isoform (Homo sapiens, UniProt P42336). The experiment in a line: (§1) The final concentrations of ATP and phosphatidyl inositol in the assay are 5 μM and 6 μg/mL, respectively. The reaction is started by the addition of PI3 kinase, e.g. PI3 kinase 6.p110δ.The components of the assay are added per well as follows 10 μl test compound in 5% DMSO per well in columns 2-1. Total activity is determined by addition 10 μl of 5% vol/vol DMSO in the first 4 wells of column 1 and the last 4 wells of column 12. The background is determined by addition of 10 μM control compound to the last 4 wells of column 1 and the first 4 wells of column 12. 2 mL Assay mix are prepared per plate 1.912 mL of HEPES assay buffer 8.33 μl of 3 mM stock of ATP giving a final concentration of 5 μM per well 1 μl of [33P]ATP on the activity date giving 0.05 μCi per well 30 μl of 1 mg/mL PI stock giving a final concentration of 6 μg/mL per well 5 μl of 1 M stock MgCl2 giving a final concentration of 1 mM per well 20 μl of the assay mix are added per well. 2 mL Enzyme mix are prepared per plate (x* μl PI3 kinase p110(3 in 2 mL of kinase buffer). The Enzyme mix is kept on ice during addition to the assay plates. 20 μl ‘Enzyme mix’ are added/well to start the reaction. The plate is then incubated at room temperature for 90 minutes. The reaction is terminated by the addition of 50 μl WGA-SPA bead (wheat germ agglutinin-coated Scintillation Proximity Assay beads) suspension per well. The assay plate is sealed using TopSeal-S (heat seal for polystyrene microplates, PerkinElmer LAS [Deutschland] GmbH, Rodgau, Germany) and incubated at room temperature for at least 60 minutes. The assay plate is then centrifuged at 1500 rpm for 2 minutes using the Jouan bench top centrifuge (Jouan Inc., Nantes, France). The assay plate is counted using a Packard TopCount, each well being counted for 20 seconds. The volume of enzyme is dependent on the enzymatic activity of the batch in use.In a more preferred assay, the kinase reaction is performed in a final volume of 10 μl per well of a low volume non-binding CORNING, 384 well black plate (Cat. No. #3676). The final concentrations of ATP and phosphatidyl inositol (PI) in the assay are 1 μM and 10 μg/mL, respectively. The reaction is started by the addition of ATP.The components of the assay are added per well as follows:50 nl test compounds in 90% DMSO per well, in columns 1-20, 8 concentrations (⅓ and 1/3.33 serial dilution step) in single. Low control: 50 nl of 90% DMSO in half the wells of columns 23-24 (0.45% in final). High control: 50 nl of reference compound (e.g. compound of Example 7 in WO 2006/122806) in the other half of columns 23-24 (2.5 μM in final). Standard: 50 nl of reference compound as just mentioned diluted as the test compounds in columns 21-22. 20 mL buffer are prepared per assay 200 μl of 1M TRIS HCl pH7.5 (10 mM in final) 60 μl of 1M MgCl2 (3 mM in final) 500 μl of 2M NaCl (50 mM in final) 100 μl of 10% CHAPS (0.05% in final) 200 μl of 100 mM DTT (1 mM in final) 18.94 mL of nanopure water 10 mL PI are prepared per assay 200 μl of 1 mg/mL 1-alpha-Phosphatidylinositol (Liver Bovine, Avanti Polar Lipids Cat. No. 840042C MW=909.12) prepared in 3% OctylGlucoside (10 μg/mL in final) 9.8 mL of buffer 10 mL ATP are prepared per assay. On the technique in general: SPA uses beads or plates that emit light when radiolabelled molecules are held near them.

The target in assay [2] is T1, Phosphatidylinositol 4,5-bisphosphate 3-kinase catalytic subunit delta isoform (Homo sapiens, UniProt O00329).
T1 sequence (O00329 whole entry): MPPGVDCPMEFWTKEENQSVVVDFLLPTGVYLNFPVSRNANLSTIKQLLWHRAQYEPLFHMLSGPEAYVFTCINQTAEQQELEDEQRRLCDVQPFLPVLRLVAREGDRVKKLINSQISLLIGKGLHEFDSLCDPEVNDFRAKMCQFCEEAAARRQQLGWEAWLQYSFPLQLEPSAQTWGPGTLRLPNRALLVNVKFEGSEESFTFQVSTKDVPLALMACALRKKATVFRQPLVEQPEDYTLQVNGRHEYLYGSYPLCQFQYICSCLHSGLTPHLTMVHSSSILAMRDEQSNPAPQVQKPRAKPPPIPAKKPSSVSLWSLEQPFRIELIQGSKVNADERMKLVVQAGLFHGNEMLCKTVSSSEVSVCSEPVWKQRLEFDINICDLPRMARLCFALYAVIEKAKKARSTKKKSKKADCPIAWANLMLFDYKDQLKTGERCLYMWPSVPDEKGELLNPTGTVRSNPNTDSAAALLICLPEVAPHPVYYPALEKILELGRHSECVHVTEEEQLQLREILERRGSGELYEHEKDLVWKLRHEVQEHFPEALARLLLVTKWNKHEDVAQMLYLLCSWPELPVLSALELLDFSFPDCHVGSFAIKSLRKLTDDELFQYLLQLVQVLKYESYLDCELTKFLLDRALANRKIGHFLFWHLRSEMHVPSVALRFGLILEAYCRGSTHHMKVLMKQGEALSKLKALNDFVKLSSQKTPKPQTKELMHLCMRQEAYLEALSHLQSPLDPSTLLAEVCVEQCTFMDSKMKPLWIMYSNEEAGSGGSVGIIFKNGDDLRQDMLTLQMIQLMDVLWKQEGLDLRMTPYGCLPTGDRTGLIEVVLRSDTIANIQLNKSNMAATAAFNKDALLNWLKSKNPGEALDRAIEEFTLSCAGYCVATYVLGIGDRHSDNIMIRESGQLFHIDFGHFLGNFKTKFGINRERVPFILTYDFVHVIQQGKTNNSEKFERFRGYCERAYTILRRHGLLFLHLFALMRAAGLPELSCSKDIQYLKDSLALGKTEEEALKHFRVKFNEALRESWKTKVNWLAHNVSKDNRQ
The assay is described as §1.

Chain of Phosphatidylinositol 4,5-bisphosphate 3-kinase catalytic subunit alpha isoform (P42336 whole entry, canonical isoform): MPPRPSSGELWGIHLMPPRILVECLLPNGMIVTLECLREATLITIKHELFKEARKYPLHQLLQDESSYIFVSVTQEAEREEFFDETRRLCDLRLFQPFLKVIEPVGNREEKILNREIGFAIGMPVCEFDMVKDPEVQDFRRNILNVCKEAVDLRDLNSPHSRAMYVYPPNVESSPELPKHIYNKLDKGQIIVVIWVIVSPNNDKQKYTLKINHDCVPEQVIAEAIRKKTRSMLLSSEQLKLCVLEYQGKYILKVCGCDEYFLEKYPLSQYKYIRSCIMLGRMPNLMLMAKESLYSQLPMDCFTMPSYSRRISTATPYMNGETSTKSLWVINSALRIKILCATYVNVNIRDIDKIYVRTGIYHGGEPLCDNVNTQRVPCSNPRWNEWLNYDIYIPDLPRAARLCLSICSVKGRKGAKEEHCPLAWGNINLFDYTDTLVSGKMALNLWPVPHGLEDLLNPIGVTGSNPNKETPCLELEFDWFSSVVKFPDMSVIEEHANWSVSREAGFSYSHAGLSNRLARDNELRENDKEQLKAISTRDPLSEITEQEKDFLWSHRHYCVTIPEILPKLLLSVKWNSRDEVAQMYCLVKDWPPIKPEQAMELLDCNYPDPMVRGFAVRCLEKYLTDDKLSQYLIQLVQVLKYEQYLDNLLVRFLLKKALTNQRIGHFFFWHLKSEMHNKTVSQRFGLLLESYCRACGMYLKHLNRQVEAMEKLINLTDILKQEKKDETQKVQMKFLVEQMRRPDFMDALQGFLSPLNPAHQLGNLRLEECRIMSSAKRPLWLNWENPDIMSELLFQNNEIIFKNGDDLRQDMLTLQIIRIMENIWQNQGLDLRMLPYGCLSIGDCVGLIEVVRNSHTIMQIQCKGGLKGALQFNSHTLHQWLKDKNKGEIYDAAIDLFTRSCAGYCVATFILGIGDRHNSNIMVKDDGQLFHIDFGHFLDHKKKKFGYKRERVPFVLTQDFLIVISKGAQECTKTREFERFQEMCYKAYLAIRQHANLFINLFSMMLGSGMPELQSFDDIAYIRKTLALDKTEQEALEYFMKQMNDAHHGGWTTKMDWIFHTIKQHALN

One may read the IC50 as the concentration that gives 50% inhibition. Lower therefore signals inhibition by little substance. As for `Cc1ccc(N2CCOc3ccc(O[C@H]4CCN(C(=O)C5CCOCC5)C4)cc32)cn1`, the figures for the concentration for half-maximal inhibition (IC50) in assay [1] and in assay [2] were 4660 nM and 37 nM, respectively.

As to `CC(C)S(=O)(=O)c1cncc(N2CCOc3ccc(O[C@H]4CCN(C(=O)C5CCOCC5)C4)cc32)c1`, the IC50 in assay [1] was found to be 2240 nM; in assay [2], 110 nM.

For the compound `O=C(C1CCOCC1)N1CC[C@H](Oc2ccc3c(c2)N(c2cncc(C(F)(F)F)c2)CCO3)C1`, the IC50 amounted to 377 nM in assay [1] and 9 nM in assay [2].

Take `O=C(C1CCOCC1)N1CC[C@H](Oc2ccc3c(c2)N(c2cncc(S(=O)(=O)N4CCOCC4)c2)CCO3)C1`: the IC50 in assay [1] amounted to 313 nM; in assay [2] it was 3 nM.

For `COc1ncc(N2CCOc3ccc(O[C@H]4CCN(C(=O)C(C)C)C4)cc32)cc1C#N`, the values for the IC50 in assay [1] and in assay [2] were 463 nM and 11 nM, respectively.

`COc1cc(N2CCOc3ccc(O[C@H]4CCN(C(=O)c5cn(C)cn5)C4)cc32)cnc1Cl`: the IC50 in assay [1] came to 496 nM; in assay [2] it was 41 nM.

As to `COc1ncc(N2CCOc3ccc(O[C@H]4CCN(C(=O)c5cn(C)cn5)C4)cc32)cc1F`, the IC50 stood at 209 nM in assay [1] and 10.2 nM in assay [2].

`Cc1cc(N2CCOc3cnc(O[C@H]4CCN(C(=O)C5CCS(=O)(=O)CC5)C4)cc32)cnc1OC(F)F`: the values for the IC50 in assay [1] and in assay [2] were 870 nM and 10 nM, respectively.

For the compound `COc1cc(N2CCOc3ccc(O[C@H]4CCN(C(=O)C5CCC(F)(F)CC5)C4)cc32)cnc1S(C)(=O)=O`, the IC50 in assay [1] was found to be 870 nM; in assay [2] it was 35 nM.

Regarding `Cc1cc(N2CCOc3ccc(O[C@H]4CCN(C(=O)c5cn(C)cn5)C4)cc32)cnc1Cl`, the results for the half-maximal inhibitory concentration (IC50) in assay [1] and in assay [2] were 193 nM and 32 nM, respectively.

With `COc1cc(N2CCOc3ccc(O[C@H]4CCN(C(=O)C5CCCO5)C4)cc32)cnc1OC` (single isomer, unassigned), the IC50 was 703 nM and 521 nM in assay [1]; 5 nM and 7 nM in assay [2].

In the case of `Cc1cc(N2CCOc3ccc(O[C@H]4CCN(C(=O)c5ccc(=O)[nH]c5)C4)cc32)cnc1Cl`, the IC50 amounted to 795 nM in assay [1] and 35 nM in assay [2].

The values above are taken from ChEMBL document CHEMBL5725430, “Dihydro-benzo-oxazine and dihydro-pyrido-oxazine derivatives” (2017).
